Reference: US8937076B2, “Crystalline form of entecavir, its preparation and the pharmaceutical composition and uses thereof” (Zhejiang Medicine Co., Ltd. Xinchang Pharaceutical Factory, priority 2007, dated 2015)

Experiment: Solubility at room temperature
Assay type: physicochemical

C=C1[C@H](CO)[C@@H](O)C[C@@H]1n1cnc2c(=O)[nH]c(N)nc21 [crystalline form of entecavir]
Solubility in N,N-dimethylformamide (N. N-dimethylformamide): sparingly soluble | Solubility in dimethyl sulfoxide (dimethyl sulfoxide): soluble | Solubility in ethanol (ethanol): slightly soluble | Solubility in water (water): insoluble
